Reference: patent US5656654A, “Arylidene and heteroarylidene oxindole derivatives and process for their preparation” (Farmitalia Carlo Erba S.r.l., priority 1993, dated 1997)

Legend:
p45 v-abl kinase = biological target: T1, p45 v-abl kinase (Abelson murine leukemia virus, UniProt P00521); test: p45 v-abl Kinase Assay ((Val^5)-Angiotensin II phosphorylation, in vitro); format: biochemical
T1 construct: by cited methods bacterially expressed (E. coli)
Experimental: p45 v-abl kinase purification. The enzyme used in our test was the p45 v-abl tyrosine kinase which represents the catalytic domain of the Abelson tyrosine kinase (isolated from the Abelson murine leukemia virus). The p45 v-abl kinase was produced and isolated as described by Wang et al. in J. Biol. Chem. 260, 64 (1985) and by Ferguson et al. in J. Biol. Chem. 260, 3652 (1985) and in Biochem. J. 257, 321 (1989).
p45 v-abl Kinase Assay. (Val^5)-Angiotensin II phosphorylation was performed by incubation with 40 ng of purified abl-kinase and (γ-^32 P)-ATP, in 50 μl of buffer containing Tris-HCl 25 mM, pH 8.0, MgCl2 10 mM and dithiothreitol 0.1 mM (kinase buffer). The reaction mixture was incubated for the indicated time at 30° C. and the reaction stopped by adding 50 μl of 5% trichloroacetic acid. After a brief incubation on ice, tubes were centrifuged. The supernatants were spotted on phosphocellulose paper squares (Whatman P-81) and washed extensively in acetic acid. The radioactivity bound to dried phosphocellulose squares was measured in a liquid scintillation counter. IC50 values were calculated from triplicate determinations of each experimental point. Each inhibitor was tested at concentrations ranging from […] in the presence of fixed concentrations of peptide (2 mM) and ATP (50 μM).
(§1) The inhibitory activity data for a representative group of compounds according to the present invention, obtained both in the in vitro p45 v-abl kinase assay and in the in vivo human chronic myeloid leukemia K 562 cell growth inhibition assay described above, are set out in following Table 1.

[1] = test system: K562 cells (human chronic myeloid leukemia); test: K562 cell growth inhibition assay ([^3-H]-Thymidine, headed In Vivo ASSAY); format: cell-based; conditions: K562 cells in suspension, 66 h, with or without 10% foetal calf serum
Experimental: K562 cell growth inhibition assay. 1 ml of K562 cells, grown in suspension, were incubated for 66 h with or without 10% foetal calf serum in the presence of 1 μCi of [^3 -H]-Thymidine. Cells were harvested, washed three times in cold PBS and treated with 5% trichloroacetic acid for 5 min on ice. After a wash in ethanol: ether 2:1, the DNA was extracted by 0.5N NaOH for 2 h at room temperature. The extract was counted in a liquid scintillation counter.
as §1

T1 sequence (P00521 whole entry): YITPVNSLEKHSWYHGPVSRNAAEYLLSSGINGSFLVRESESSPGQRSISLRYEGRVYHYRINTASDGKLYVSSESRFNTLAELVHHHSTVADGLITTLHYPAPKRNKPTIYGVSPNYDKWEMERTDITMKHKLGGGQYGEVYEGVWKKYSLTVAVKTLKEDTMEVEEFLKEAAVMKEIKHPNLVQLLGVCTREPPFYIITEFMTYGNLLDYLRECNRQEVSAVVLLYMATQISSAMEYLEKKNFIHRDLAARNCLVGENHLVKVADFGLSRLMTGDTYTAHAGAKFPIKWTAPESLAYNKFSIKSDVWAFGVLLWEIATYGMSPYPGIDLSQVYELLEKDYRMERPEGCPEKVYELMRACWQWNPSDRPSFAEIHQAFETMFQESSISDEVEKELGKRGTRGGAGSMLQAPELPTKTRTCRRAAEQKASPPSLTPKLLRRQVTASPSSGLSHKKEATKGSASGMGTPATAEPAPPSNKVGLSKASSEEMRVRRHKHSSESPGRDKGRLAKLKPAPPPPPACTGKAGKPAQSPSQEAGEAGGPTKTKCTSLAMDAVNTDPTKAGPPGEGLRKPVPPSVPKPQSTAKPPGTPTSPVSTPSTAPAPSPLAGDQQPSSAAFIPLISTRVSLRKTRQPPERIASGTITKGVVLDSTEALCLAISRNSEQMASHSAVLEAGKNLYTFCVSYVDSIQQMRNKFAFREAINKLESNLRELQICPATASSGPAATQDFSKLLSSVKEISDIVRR

O=C1Nc2ccccc2C1=Cc1c[nH]c2ccc(O)cc12 [FCE 27866, 3-[(5'-hydroxy-3'-indolyl)methylene]-2-oxindole]
IC50 (p45 v-abl kinase): 5.2 µM
IC50 [1]: 8.75 µM

Nc1ccc2c(c1)C(=Cc1ccc(O)c3ncccc13)C(=O)N2 [FCE 27518, 5-amino-3-[(8'-hydroxy-5'-quinolyl)methylene]-2-oxindole]
IC50 (p45 v-abl kinase): 6.9 µM
IC50 [1]: 1.2 µM

N#Cc1ccc2[nH]cc(C=C3C(=O)Nc4ccccc43)c2c1 [FCE 27565, 3-[(5'-cyano-3'-indolyl)methylene]-2-oxindole]
IC50 (p45 v-abl kinase): 2.4 µM

O=C1Nc2ccc(O)cc2C1=Cc1ccc(O)c2c1CCCC2 [FCE 28337, 5-hydroxy-3-[(4'-hydroxy-1'-tetralyl)methylene]-2-oxindole]
IC50 (p45 v-abl kinase): 2.32 µM
IC50 [1]: 11.5 µM

Cc1[nH]c2ccccc2c1C=C1C(=O)Nc2ccccc21 [FCE 27566, 3-[(2'-methyl-3'-indolyl)methylene]-2-oxindole]
IC50 (p45 v-abl kinase): 15.6 µM
IC50 [1]: 2.2 µM

COc1ccc2[nH]cc(C=C3C(=O)Nc4ccccc43)c2c1 [FCE 27564, 3-[(5'-methoxy-3'-indolyl)methylene]-2-oxindole]
IC50 (p45 v-abl kinase): 0.8 µM
IC50 [1]: 4.15 µM

COc1ccc2[nH]cc(C=C3C(=O)Nc4ccc(O)cc43)c2c1 [FCE 28359, 5-hydroxy-3-[(5'-methoxy-3'-indolyl)methylene]-2-oxindole]
IC50 (p45 v-abl kinase): 0.39 µM
IC50 [1]: 8.15 µM

Nc1ccc2c(c1)C(=Cc1cc(O)c3c(c1O)CCCC3)C(=O)N2 [FCE 28360, 5-amino-3-[(1',4'-dihydroxy-2'-tetralyl)methylene]-2-oxindole]
IC50 (p45 v-abl kinase): 4.7 µM
IC50 [1]: 6.25 µM

COc1ccc2[nH]cc(C=C3C(=O)Nc4ccc(N)cc43)c2c1 [FCE 28436, 5-amino-3-[(5'-methoxy-3'-indolyl)methylene]-2-oxindole]
IC50 (p45 v-abl kinase): 0.305 µM
IC50 [1]: 14.5 µM

O=C1Nc2ccc(Br)cc2C1=Cc1ccc(O)c2ncccc12 [FCE 27996, 5-bromo-3-[(8'-hydroxy-5'-quinolyl)methylene]-2-oxindole]
IC50 (p45 v-abl kinase): 2.6 µM
IC50 [1]: 0.62 µM
